Measured values: ChEMBL document CHEMBL3352057, “Novel fluorinated pyrrolo[1,2-a]pyrazine-2,6-dione derivatives: synthesis and anticonvulsant evaluation in animal models of epilepsy” (Bioorg Med Chem, 2014)
Active and inactive are the calls of the source. The calls are words filed in the database; no cut-off is given here.

Each molecule was assayed on Mus musculus (assay: Neurotoxicity in albino CF1 mouse at 100 mg/kg, ip measured after 1 hr). Conditions: in vivo.
Assay type: toxicity, organism-based
Design: dose 100 mg/kg, route intraperitoneal
With `O=C1NC(=O)[C@@H]2CCCN2[C@H]1c1ccc(C(F)(F)F)cc1` the Activity was “Non-toxic”.

The molecules below were run on Rattus norvegicus (assay: Neurotoxicity in MES Sprague-Dawley rat model at 30 mg/kg, ip measured after 0.5 hr). Conditions: in vivo.
Assay type: toxicity, organism-based
Design: dose 30 mg/kg, route intraperitoneal
For `O=C1NC(=O)[C@@H]2CCCN2[C@H]1c1ccc(C(F)(F)F)cc1`, the Activity was “Non-toxic”.

These molecules were tested on Mus musculus (assay: Neurotoxicity in albino CF1 mouse at 100 mg/kg, ip measured after 4 hrs). Conditions: in vivo.
Assay type: toxicity, organism-based
Design: dose 100 mg/kg, route intraperitoneal
For `O=C1NC(=O)[C@@H]2CCCN2[C@H]1c1ccc(C(F)(F)F)cc1`, the Activity was “Non-toxic”.

The molecules below were run on Mus musculus (assay: Anticonvulsant activity in albino CF1 mouse assessed as protection against subcutaneous metrazol-induced seizures at 100 mg/kg, ip measured after 1 hr). Conditions: not given.
Assay type: functional, organism-based
Design: dose 100 mg/kg
For `O=C1NC(=O)[C@@H]2CCCN2[C@H]1c1ccc(C(F)(F)F)cc1`, the Activity was “inactive”.

What follows are molecules tested on Mus musculus (assay: Neurotoxicity in albino CF1 mouse at 100 mg/kg, ip measured after 0.5 hr). Conditions: in vivo.
Assay type: toxicity, organism-based
Design: dose 100 mg/kg, route intraperitoneal
With `O=C1NC(=O)[C@@H]2CCCN2[C@H]1c1ccc(C(F)(F)F)cc1` the Activity was “Non-toxic”.

These molecules were tested on Mus musculus (assay: Anticonvulsant activity in albino CF1 mouse assessed as protection against 32 mA current-induced seizures at 100 mg/kg, ip measured after 2 hrs). Conditions: not given.
Assay type: functional, organism-based
Design: dose 100 mg/kg
With `O=C1NC(=O)[C@@H]2CCCN2[C@H]1c1ccc(C(F)(F)F)cc1` the Activity was “inactive”.

The molecules below were run on Rattus norvegicus (assay: Neurotoxicity in MES Sprague-Dawley rat model at 30 mg/kg, ip measured after 0.25 hr). Conditions: in vivo.
Assay type: toxicity, organism-based
Design: dose 30 mg/kg, route intraperitoneal
For `O=C1NC(=O)[C@@H]2CCCN2[C@H]1c1ccc(C(F)(F)F)cc1`, the Activity was “Non-toxic”.

These molecules were tested on Mus musculus (assay: Anticonvulsant activity in albino CF1 mouse assessed as protection against 32 mA current-induced seizures at 100 mg/kg, ip measured after 4 hrs). Conditions: not given.
Assay type: functional, organism-based
Design: dose 100 mg/kg
In the case of `O=C1NC(=O)[C@@H]2CCCN2[C@H]1c1ccc(C(F)(F)F)cc1`, the Activity is reported as “inactive”.

The molecules below were run on Rattus norvegicus (assay: Anticonvulsant activity in Sprague-Dawley rat assessed as protection against maximal electroshock-induced seizures at 30 mg/kg, ip measured after 0.5 hr). Conditions: not given.
Assay type: functional, organism-based
Design: dose 30 mg/kg
With `O=C1NC(=O)[C@@H]2CCCN2[C@H]1c1ccc(C(F)(F)F)cc1` the Activity was “inactive”.

Each molecule was assayed on Mus musculus (assay: Anticonvulsant activity in albino CF1 mouse assessed as protection against maximal electroshock-induced seizures at 100 mg/kg, ip measured after 0.5 hr). Conditions: not given.
Assay type: functional, organism-based
Design: dose 100 mg/kg
With `O=C1NC(=O)[C@@H]2CCCN2[C@H]1c1ccc(C(F)(F)F)cc1` the Activity was “inactive”.

These molecules were tested on Rattus norvegicus (assay: Anticonvulsant activity in Sprague-Dawley rat assessed as protection against maximal electroshock-induced seizures at 30 mg/kg, ip measured after 4 hrs). Conditions: not given.
Assay type: functional, organism-based
Design: dose 30 mg/kg
With `O=C1NC(=O)[C@@H]2CCCN2[C@H]1c1ccc(C(F)(F)F)cc1` the Activity was “inactive”.

What follows are molecules tested on Mus musculus (assay: Anticonvulsant activity in albino CF1 mouse assessed as protection against subcutaneous metrazol-induced seizures at 100 mg/kg, ip measured after 0.5 hr). Conditions: not given.
Assay type: functional, organism-based
Design: dose 100 mg/kg
`O=C1NC(=O)[C@@H]2CCCN2[C@H]1c1ccc(C(F)(F)F)cc1` was tested, and the Activity was “Active”.

What follows are molecules tested on Mus musculus (assay: Anticonvulsant activity in albino CF1 mouse assessed as protection against 32 mA current-induced seizures at 100 mg/kg, ip measured after 0.5 hr). Conditions: not given.
Assay type: functional, organism-based
Design: dose 100 mg/kg
For `O=C1NC(=O)[C@@H]2CCCN2[C@H]1c1ccc(C(F)(F)F)cc1`, the Activity was “Active”.

What follows are molecules tested on Mus musculus (assay: Anticonvulsant activity in albino CF1 mouse assessed as protection against subcutaneous metrazol-induced seizures at 100 mg/kg, ip measured after 0.25 hr). Conditions: not given.
Assay type: functional, organism-based
Design: dose 100 mg/kg
In the case of `O=C1NC(=O)[C@@H]2CCCN2[C@H]1c1ccc(C(F)(F)F)cc1`, the Activity is reported as “Active”.

What follows are molecules tested on Mus musculus (assay: Neurotoxicity in 32 mA current-induced seizure albino CF1 mouse model at 100 mg/kg, ip measured after 0.25 hr). Conditions: in vivo.
Assay type: toxicity, organism-based
Design: dose 100 mg/kg, route intraperitoneal
For `O=C1NC(=O)[C@@H]2CCCN2[C@H]1c1ccc(C(F)(F)F)cc1`, the Activity was “Non-toxic”.

Each molecule was assayed on Mus musculus (assay: Neurotoxicity in 32 mA current-induced seizure albino CF1 mouse model at 100 mg/kg, ip measured after 2 hrs). Conditions: in vivo.
Assay type: toxicity, organism-based
Design: dose 100 mg/kg, route intraperitoneal
`O=C1NC(=O)[C@@H]2CCCN2[C@H]1c1ccc(C(F)(F)F)cc1` was tested, and the Activity was “Non-toxic”.

What follows are molecules tested on Mus musculus (assay: Neurotoxicity in 32 mA current-induced seizure albino CF1 mouse model at 100 mg/kg, ip measured after 0.5 hr). Conditions: in vivo.
Assay type: toxicity, organism-based
Design: dose 100 mg/kg, route intraperitoneal
For `O=C1NC(=O)[C@@H]2CCCN2[C@H]1c1ccc(C(F)(F)F)cc1`, the Activity was “Non-toxic”.

What follows are molecules tested on Rattus norvegicus (assay: Neurotoxicity in MES Sprague-Dawley rat model at 30 mg/kg, ip measured after 2 hrs). Conditions: in vivo.
Assay type: toxicity, organism-based
Design: dose 30 mg/kg, route intraperitoneal
With `O=C1NC(=O)[C@@H]2CCCN2[C@H]1c1ccc(C(F)(F)F)cc1` the Activity was “Non-toxic”.

Each molecule was assayed on Mus musculus (assay: Anticonvulsant activity in albino CF1 mouse assessed as protection against maximal electroshock-induced seizures at 100 mg/kg, ip measured after 1 hr). Conditions: not given.
Assay type: functional, organism-based
Design: dose 100 mg/kg
With `O=C1NC(=O)[C@@H]2CCCN2[C@H]1c1ccc(C(F)(F)F)cc1` the Activity was “Active”.

These molecules were tested on Mus musculus (assay: Anticonvulsant activity in albino CF1 mouse assessed as protection against maximal electroshock-induced seizures at 100 mg/kg, ip measured after 4 hrs). Conditions: not given.
Assay type: functional, organism-based
Design: dose 100 mg/kg
With `O=C1NC(=O)[C@@H]2CCCN2[C@H]1c1ccc(C(F)(F)F)cc1` the Activity was “inactive”.

These molecules were tested on Mus musculus (assay: Anticonvulsant activity in albino CF1 mouse assessed as protection against 32 mA current-induced seizures at 100 mg/kg, ip measured after 1 hr). Conditions: not given.
Assay type: functional, organism-based
Design: dose 100 mg/kg
For `O=C1NC(=O)[C@@H]2CCCN2[C@H]1c1ccc(C(F)(F)F)cc1`, the Activity was “inactive”.

Each molecule was assayed on Mus musculus (assay: Neurotoxicity in 32 mA current-induced seizure albino CF1 mouse model at 100 mg/kg, ip measured after 1 hr). Conditions: in vivo.
Assay type: toxicity, organism-based
Design: dose 100 mg/kg, route intraperitoneal
With `O=C1NC(=O)[C@@H]2CCCN2[C@H]1c1ccc(C(F)(F)F)cc1` the Activity was “Non-toxic”.

Each molecule was assayed on Rattus norvegicus (assay: Anticonvulsant activity in Sprague-Dawley rat assessed as protection against maximal electroshock-induced seizures at 30 mg/kg, ip measured after 1 hr). Conditions: not given.
Assay type: functional, organism-based
Design: dose 30 mg/kg
With `O=C1NC(=O)[C@@H]2CCCN2[C@H]1c1ccc(C(F)(F)F)cc1` the Activity was “inactive”.

The molecules below were run on Mus musculus (assay: Anticonvulsant activity in albino CF1 mouse assessed as protection against 32 mA current-induced seizures at 100 mg/kg, ip measured after 0.25 hr). Conditions: not given.
Assay type: functional, organism-based
Design: dose 100 mg/kg
In the case of `O=C1NC(=O)[C@@H]2CCCN2[C@H]1c1ccc(C(F)(F)F)cc1`, the Activity is reported as “inactive”.

The molecules below were run on Mus musculus (assay: Anticonvulsant activity in albino CF1 mouse assessed as protection against maximal electroshock-induced seizures at 100 mg/kg, ip measured after 0.25 hr). Conditions: not given.
Assay type: functional, organism-based
Design: dose 100 mg/kg
With `O=C1NC(=O)[C@@H]2CCCN2[C@H]1c1ccc(C(F)(F)F)cc1` the Activity was “Active”.

These molecules were tested on Mus musculus (assay: Neurotoxicity in albino CF1 mouse at 100 mg/kg, ip measured after 0.25 hr). Conditions: in vivo.
Assay type: toxicity, organism-based
Design: dose 100 mg/kg, route intraperitoneal
With `O=C1NC(=O)[C@@H]2CCCN2[C@H]1c1ccc(C(F)(F)F)cc1` the Activity was “Non-toxic”.

The molecules below were run on Rattus norvegicus (assay: Anticonvulsant activity in Sprague-Dawley rat assessed as protection against maximal electroshock-induced seizures at 30 mg/kg, ip measured after 0.25 hr). Conditions: not given.
Assay type: functional, organism-based
Design: dose 30 mg/kg
For `O=C1NC(=O)[C@@H]2CCCN2[C@H]1c1ccc(C(F)(F)F)cc1`, the Activity was “inactive”.

These molecules were tested on Mus musculus (assay: Anticonvulsant activity in albino CF1 mouse assessed as protection against subcutaneous metrazol-induced seizures at 100 mg/kg, ip measured after 4 hrs). Conditions: not given.
Assay type: functional, organism-based
Design: dose 100 mg/kg
For `O=C1NC(=O)[C@@H]2CCCN2[C@H]1c1ccc(C(F)(F)F)cc1`, the Activity was “inactive”.

Each molecule was assayed on Rattus norvegicus (assay: Anticonvulsant activity in Sprague-Dawley rat assessed as protection against maximal electroshock-induced seizures at 30 mg/kg, ip measured after 2 hrs). Conditions: not given.
Assay type: functional, organism-based
Design: dose 30 mg/kg
With `O=C1NC(=O)[C@@H]2CCCN2[C@H]1c1ccc(C(F)(F)F)cc1` the Activity was “inactive”.

Each molecule was assayed on Rattus norvegicus (assay: Neurotoxicity in MES Sprague-Dawley rat model at 30 mg/kg, ip measured after 4 hrs). Conditions: in vivo.
Assay type: toxicity, organism-based
Design: dose 30 mg/kg, route intraperitoneal
In the case of `O=C1NC(=O)[C@@H]2CCCN2[C@H]1c1ccc(C(F)(F)F)cc1`, the Activity is reported as “Non-toxic”.

Each molecule was assayed on Mus musculus (assay: Neurotoxicity in 32 mA current-induced seizure albino CF1 mouse model at 100 mg/kg, ip measured after 4 hrs). Conditions: in vivo.
Assay type: toxicity, organism-based
Design: dose 100 mg/kg, route intraperitoneal
In the case of `O=C1NC(=O)[C@@H]2CCCN2[C@H]1c1ccc(C(F)(F)F)cc1`, the Activity is reported as “Non-toxic”.

The molecules below were run on Rattus norvegicus (assay: Neurotoxicity in MES Sprague-Dawley rat model at 30 mg/kg, ip measured after 1 hr). Conditions: in vivo.
Assay type: toxicity, organism-based
Design: dose 30 mg/kg, route intraperitoneal
`O=C1NC(=O)[C@@H]2CCCN2[C@H]1c1ccc(C(F)(F)F)cc1` was tested, and the Activity was “Non-toxic”.
